Measured values taken from PMC6410080 (Viruses, 2019).
Where a name gives a salt, the structure may show the parent alone. Read-outs that look alike come from different tables or passages of the source.

Columns and labels:
[1] = test system: DID-labelled SFV hemifusion/fusion; assay type: cell-based, Semliki Forest virus; conditions: HeLa Kyoto, 10 μM (20 μM Raloxifene; Bafilomycin 100 nM), 40 min at 37 °C
H5N1 VLP = test: microbe, parasite or virus in culture; assay type: cell-based, influenza H5N1; conditions: for IC50: Influenza A virus, H5N1, HeLa Kyoto, 48 h, read-out: IC50 H5N1
HIV-1 = test: microbe, parasite or virus in culture; assay type: cell-based, human immunodeficiency virus type 1; conditions: for IC50 HIV: virus, HeLa TZM-bl, 24 h
SFV [2] = assay type: cell-based, Semliki Forest virus
EBOV VLP = test: microbe, parasite or virus in culture; assay type: cell-based, Ebola virus; conditions: Zaire ebolavirus, HeLa Kyoto, 48 h, read-out: IC50 EBOV
DENV-2 = DENV-2 infection assay / secondary screen (E protein staining); assay type: cell-based, dengue virus serotype 2; conditions: Dengue virus, DENV2, Huh-7, 24 h; for inhibition at 10 µM: read-out: % inhibition (DENV-2 screen)
HSV-1 = test: microbe, parasite or virus in culture; assay type: cell-based, herpes simplex virus 1; conditions: 8 h; for IC50: Human alphaherpesvirus 1, Vero, read-out: IC50 HSV (Vero)
RABV VLP = test: microbe, parasite or virus in culture; assay type: cell-based, rabies virus; conditions: for IC50: Lyssavirus rabies, HeLa Kyoto, 24 h, read-out: IC50 RABV
HCV = test: microbe, parasite or virus in culture; assay type: cell-based, hepatitis C virus; conditions: Hepatitis C virus, Huh7.5, read-out: IC50 HCV
VSV_Blam_VLP fusion = test: microbe, parasite or virus in culture; assay type: cell-based; conditions: Vesicular stomatitis virus, HeLa Kyoto, read-out: Inhibition of VSV_Blam_VLP fusion compared to DMSO controls
Huh7 cells = test: MTT assay, Huh7 cells; conditions: for TC50 DENV-2 (7 + 17 h): Huh7, compounds 7 h then compound-free media 17 h; for TC50 DENV-2 (24 h): Huh7, compounds 24 h
SFV [3] = test: microbe, parasite or virus in culture; assay type: cell-based, Semliki Forest virus; conditions: Semliki Forest virus; for IC50: HeLa Kyoto, read-out: IC50 SFV (7 h); for inhibition at 10 µM: M-HeLa, 7 h, read-out: % inhibition (SFV screen)
VSV VLP = test: microbe, parasite or virus in culture; assay type: cell-based, vesicular stomatitis virus; conditions: Vesicular stomatitis virus, HeLa Kyoto, 24 h, read-out: IC50 VSV
YF17D = test: organism not typed; assay type: cell-based, yellow fever 17D; conditions: Huh-7, read-out: IC50 YF17D
SINV = test: microbe, parasite or virus in culture; assay type: cell-based, Sindbis virus; conditions: Sindbis virus, HeLa Kyoto, read-out: IC50 SINV
in vitro [4] = conditions: human
viruses/VLPs tested = assay type: cell-based
VACV = test: microbe, parasite or virus in culture; assay type: cell-based, vaccinia virus; conditions: for IC50: Orthopoxvirus vaccinia, HeLa Kyoto, 8 h, read-out: IC50 VACV
DENV-1 = test: microbe, parasite or virus in culture; assay type: cell-based, dengue virus; conditions: Dengue virus, DENV1, Huh-7, read-out: IC50 DENV-1
in vitro [5] = conditions: human, % viability (SFV screen)
DENV-3 = test: microbe, parasite or virus in culture; assay type: cell-based, dengue virus; conditions: Dengue virus, DENV3, Huh-7, read-out: IC50 DENV-3
HeLa Kyoto cells = conditions: human
ZIKV = test: microbe, parasite or virus in culture; assay type: cell-based, Zika virus; conditions: for IC50: Zika virus, Huh-7, read-out: IC50 ZIKV
SFV E1 trimer formation = conditions: HeLa Kyoto, MOI 100; Chloroquine 100 μM
[6] = in vivo
SFV internalisation = assay type: cell-based, Semliki Forest virus
in vivo = conditions: CD1, mouse, ip, 10 mg/kg
[7] = test system: Renilla luciferase expression (protein synthesis); assay type: cell-based
[8] = read-out: IC50 DENV-2 (7 + 17 h)

| SMILES | Inhibition of DID-SFV de-quenching (in words) [1] | Activity when added before SFV or 30 and 60 min after internalisation (SFV [2]) | Time of Addition (SFV [2]) | IC50 (EBOV VLP) [µM] | inhibition at 10 µM (DENV-2) [%] | IC50 (DENV-2; [8]) [µM] | IC50 (DENV-2; read-out: IC50 DENV-2 (24 h)) [µM] | IC50 (HCV) [µM] | TC50 DENV-2 (7 + 17 h) (Huh7 cells) [µM] | TC50 DENV-2 (24 h) (Huh7 cells) [µM] | IC50 (SFV [3]) [µM] | inhibition at 10 µM (SFV [3]) [%] | IC50 (VSV VLP) [µM] | IC50 (YF17D) [µM] | IC50 (SINV) [µM] | viability at 10 µM (in vitro [4]) [%] | Viruses Inhibited (viruses/VLPs tested) | IC50 (DENV-1) [µM] | viability at 10 µM (in vitro [5]) [%] | IC50 (DENV-3) [µM] | further results |
| --- | --- | --- | --- | --- | --- | --- | --- | --- | --- | --- | --- | --- | --- | --- | --- | --- | --- | --- | --- | --- | --- |
| O=C(c1ccc(OCCN2CCCCC2)cc1)c1c(-c2ccc(O)cc2)sc2cc(O)ccc12 [Raloxifene, Raloxifene hydrochloride] | Intermediate levels of inhibition | minor but reproducible decrease in activity | Before and after fusion | 1.4 | 80 | 5.7 | 9.8 | 3.9 | 24.8 | ~22.63 | 15.1 | 87.7 | 12.7 | 7.8 | 30.6 | 60.4 | Unclear pattern | 8.8 | 92 | 5.3 | IC50 H5N1 (H5N1 VLP): No inhibition; IC50 HIV (HIV-1): No inhibition; IC50 (HSV-1): 23.5 µM; IC50 RABV (RABV VLP): No inhibition; inhibition at 10 µM (VSV_Blam_VLP fusion): > 50%; IC50 (VACV): 20 µM; TC50 SFV (7 h) (HeLa Kyoto cells): >50 µM; TC50 SFV (7h) (HeLa Kyoto cells): >50000 µM |
| CC(C)COCC(CN(Cc1ccccc1)c1ccccc1)N1CCCC1 (stereo not shown) [Bepridil, Bepridil hydrochloride] | Intermediate levels of inhibition | act exclusively before (or at the stage of) fusion | Before fusion | 0.8 | 97.8 | 15.2 | 12.1 | ~12.4 | ~48.8 | ~23.4 | 9.5 | 91.2 | 10.4 | 7.1 | 14.6 | 48.7 | Endosomal pH-dep. | ~20 | 71.3 | ~20 | IC50 (H5N1 VLP): 8.2 µM; IC50 HIV (HIV-1): No inhibition; IC50 HSV (Vero) (HSV-1; virus, Vero cells): No inhibition; IC50 (RABV VLP): 6.9 µM; IC50 (VACV): 26.8 µM; IC50 (ZIKV): ~25.2 µM; TC50 SFV (7 h) (HeLa Kyoto cells): 34.9 µM; TC50 SFV (7h) (HeLa Kyoto cells): 34900 µM |
| CCN(CC)CCCC(C)Nc1ccnc2cc(Cl)ccc12 (stereo not shown) [Chloroquine] |  |  |  |  |  |  |  |  |  |  |  |  |  |  |  |  |  |  |  |  | SFV E1 trimer formation (SFV E1 trimer formation): prevented trimer formation |
| CCCCc1oc2ccccc2c1C(=O)c1cc(I)c(OCCN(CC)CC)c(I)c1 [Amiodarone, Amiodarone hydrochloride] | Intermediate levels of inhibition | act exclusively before (or at the stage of) fusion | Before fusion |  | 92.9 |  |  |  | 40.6 | ~25.5 |  | 85.5 |  |  |  |  | Endosomal pH-dep. |  |  |  |  |
| CCN(CC)Cc1cc(Nc2ccnc3cc(Cl)ccc23)ccc1O [Amodiaquine, Amodiaquine dihydrochloride dihydrate] | Intermediate levels of inhibition | act exclusively before (or at the stage of) fusion | Before fusion | 0.9 | 92.1 | 12.7 | 17.2 | 4.2 | 44.2 | 18.4 | 8.5 | 73.3 | 11.2 | 5.3 | 11.3 | 79 | Endosomal pH-dep. | ~24.8 | 115 | ~25 | IC50 (H5N1 VLP): 13.6 µM; IC50 HIV (HIV-1): No inhibition; IC50 (HSV-1): 28.2 µM; IC50 (RABV VLP): 23.5 µM; IC50 VACV (VACV): No inhibition; IC50 ZIKV (ZIKV): No inhibition; TC50 SFV (7 h) (HeLa Kyoto cells): >50 µM; TC50 SFV (7h) (HeLa Kyoto cells): >50000 µM |
| O=C(Nc1ccc([N+](=O)[O-])cc1Cl)c1cc(Cl)ccc1O [Niclosamide] | Strong inhibition of de-quenching | minor but reproducible decrease in activity | Before and after fusion | 2.9 | 75.4 | 1.1 | 0.4 | 0.2 | >50 | 12.8 | 3 | 73.1 | 3.5 | < 0.3 | 2.8 | 36.9 | All tested | 1.5 | 104 | 1.6 | SFV E1 trimer formation (SFV E1 trimer formation): No trimers were observed; IC50 (H5N1 VLP): 1.4 µM; IC50 (HIV-1; Human immunodeficiency virus 1, 24 h, read-out: IC50 HIV): 3.3 µM; Peak blood concentration ([6]; CD1, mouse): 40 µM; Blood level after 2 h ([6]; mouse): undetectable; Internalised SFV E1/E2 after subtilisin treatment (SFV internalisation): Loss of E1/E2; Kinetics of SFV internalisation (subtilisin resistance) (SFV internalisation): remained lower compared to untreated control; IC50 (HSV-1): 1.3 µM; IC50 (RABV VLP): 1.3 µM; inhibition at 10 µM (VSV_Blam_VLP fusion): > 50%; IC50 (VACV): 3 µM; IC50 (ZIKV): ~0.7 µM; Tmax (in vivo): 15 min; Decrease of Renilla signal (protein synthesis) [7]: more than 50%; TC50 SFV (7 h) (HeLa Kyoto cells): >50 µM; TC50 SFV (7h) (HeLa Kyoto cells): >50000 µM |
| CO/C1=C\C(C)=C\[C@@H](C)[C@@H](O)[C@@H](C)C/C(C)=C/C=C/[C@H](OC)[C@@H]([C@@H](C)[C@@H](O)[C@H](C)[C@@]2(O)C[C@@H](O)[C@H](C)[C@@H](C(C)C)O2)OC1=O [Bafilomycin] | Strong inhibition of de-quenching |  |  |  |  |  |  |  |  |  |  |  |  |  |  |  |  |  |  |  |  |
